{"source": "paper PMC7203245", "about": "“Lacosamide intake during pregnancy increases the incidence of foetal malformations and symptoms associated with schizophrenia in the offspring of mice” (Scientific Reports, 2020)", "key": {"[1]": {"tested_on": "adult male mice", "experiment": "Sociability test", "assay_type": "in vivo", "method": "(§1) All trials were performed by an experimenter blind to the drug treatment.\nSociability test. The social testing apparatus consisted of a rectangular arena (55 x 40 x 40 cm) in which a small, round wire cage (11 cm in height, with a bottom diameter of 9 cm, vertical bars 0.5 cm and horizontal bars spaced 1 cm apart) was placed in a corner, allowing nose contact between the bars but preventing fighting. The subject mouse was first placed in the arena for 5 minutes with the round wire cage empty. After that, a strange mouse was place in the round cage in […] and the subject was allowed to explore the entire social test box for 10 min. The time spent around the empty and occupied cage was measured with the aid of the camera fitted to the top of the box."}, "[2]": {"tested_on": "pups", "experiment": "Litter loss, neonatal lethality and body weight of pups born to dams given LCM during gestation", "assay_type": "in vivo, mice", "conditions": "for weight gain from P2 to P13: higher dose", "method": "Thus, we used 10, 40, 80 and 120 mg/kg in mice, which corresponded to 56.7, 227, 454 and 681 mg/day in humans, considering an average weight of human to be 70 kg and that of mice to be 30 gr[52],[55]. Controls were administered the vehicle alone: saline solution 0.9% w/v. […] A total of 32 dams were initially treated daily, two days before mating and until the 14th day post-coitus. […] In the breastfeeding period, females were not under treatment given that a person will bottle feed the baby if they were on medication.\n(§2) In this part of the study, dams were treated until the day of delivery. After analysing the embryo toxicity data, the treatments were categorized as controls (saline vehicle solution alone), low dose (40 mg/kg) and high dose (120 mg/kg). […] The day of birth was designated as postnatal day (P) P0 and the litter size delivered by each dam was recorded, checking each pup for gross abnormalities. Pups were nursed by their natural dams until weaning and from PD 2, the pups were weighed and neonatal behavioural tests were carried out on 12 control mice, 12 low dose and 10 high dose mice from 7 litters. During testing whole litters were separated from the dams and maintained for 30 min in a warm environment. At this stage, males and females were pooled for neurodevelopmental screening. All testing was performed between 07:30 a.m. and 12:00 a.m., and the mice were weighed before performing the tests."}, "[3]": {"tested_on": "pups", "experiment": "Neonatal behavioural tests of Fox's battery (developmental landmarks, locomotion, reflexes)", "assay_type": "in vivo, mice", "conditions": "P1 to P13; dams given 40 or 120 mg/kg during gestation", "method": "as §2, with “During testing whole litters were separated from the dams and maintained for 30 min in a warm environment. At this stage, males and females were pooled for neurodevelopmental screening. All testing was performed between 07:30 a.m. and 12:00 a.m., and the mice were weighed before performing the tests.” left out\nThe animal was placed face up, and the time taken to turn over and adopt a prone position with all four feet on the ground was assessed. […]\nA mouse was placed at the edge of the table, with its forepaws and head extending over the edge. The response was scored as positive if the mouse turned around and crawled away at least 45° from the “cliff”. […]\nThe animal was placed face down on a 30° incline and the latency to turn 180° was recorded. […]\nThe total number of degrees turned by the pup during a 30 s period was recorded. […] The number of degrees was only scored in terms of completed 90° segments.\nThe latency of a mouse to walk a distance exceeding its body length on all four legs was measured on a flat surface covered with green paper. […]"}, "[4]": {"tested_on": "adult male mice", "experiment": "Pain assay (hot plate)", "assay_type": "in vivo", "conditions": "120 mg/kg LCM during gestation; at 52 and 55 degrees relative to control", "method": "as §1\nPain assay. Pain behaviour was assessed in mice using the hot plate. For the hot-plate test, a glass cylinder (16 cm high, 16 cm in diameter) was used to constrain the mice to the heated surface of the plate. The plate surface was maintained at 50-55 ± 0.5 °C and the latency to commence paw-licking was measured, using a 30 s cut-off time for each of the tested temperatures. Each temperature was tested with 1h apart."}, "[5]": {"conditions": "higher dose (120 mg/kg) to dams during gestation"}, "[6]": {"conditions": "lower dose (40 mg/kg) to dams during gestation"}}, "data": [{"smiles": "COC[C@@H](NC(C)=O)C(=O)NCc1ccccc1", "note": "[LCM, R-2-acetamido-N-benzyl-3-methoxypropionamide]", "values": [{"measurement": "social interaction with a strange mouse (sniffing time)", "setting": "[1]; 40 mg/kg in utero", "result": "183.4 ± 11.01", "unit": "s"}, {"measurement": "social interaction with a strange mouse (sniffing time)", "setting": "[1]; 120 mg/kg in utero", "result": "172.0 ± 10.78", "unit": "s"}, {"measurement": "dams that never gained weight, suggesting that they lost their litters", "setting": "[2]; 40 mg/kg LCM daily from second day of gestation to birth", "result": "1/5"}, {"measurement": "dams that never gained weight, suggesting that they lost their litters", "setting": "[2]; 120 mg/kg LCM daily from second day of gestation to birth", "result": "2/8"}, {"measurement": "body weight differences in adults", "setting": "[2]; both LCM doses (40 and 120 mg/kg in utero), adult mice", "result": "disappeared"}, {"measurement": "neonatal lethality (%)", "setting": "[2]; [5]", "result": 15.38, "unit": "%"}, {"measurement": "neonatal lethality (pups)", "setting": "[2]; [5]", "result": "10/65"}, {"measurement": "weight gain from P2 to P13", "setting": "[2]; litter that died in the perinatal nursing period", "result": 2, "unit": "g"}, {"measurement": "weight gain from P2 to P13", "setting": "[2]; other pups under the same condition", "result": 6.1, "unit": "g"}, {"measurement": "neonatal lethality (%)", "setting": "[2]; [6]", "result": 9, "unit": "%"}, {"measurement": "neonatal lethality (pups)", "setting": "[2]; [6]", "result": "3/33"}, {"measurement": "pups of an entire litter that died in the perinatal nursing period (P15-16)", "setting": "[2]; one dam exposed to higher dose", "result": 11, "unit": "pups"}, {"measurement": "postnatal somatometric development and reflexological analyses (body weight, developmental landmarks, locomotor activity, balance reflexes, suspension test)", "setting": "[3]", "result": "dose-dependent delay"}, {"measurement": "thermal nociception in the hot plate test", "setting": "[4]", "result": "significant hyperalgesia"}]}]}
